From PubChem BioAssay (NCI)
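Tested at 5 concentrations; 48 h exposure; 96-well plates; endpoints linearly interpolated, else capped at highest concentration. TGI: concentration producing complete growth inhibition.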

How the values were obtained:
Assay in all cases: NCI anticancer screen, dose series, 48 h
[1] = test system: HL-60(TB) leukemia
[2] = test system: U251 CNS
[3] = test system: RPMI-8226 leukemia
[4] = test system: BT-549 breast
[5] = test system: HT29 colon
[6] = test system: SK-MEL-28 melanoma
[7] = test system: OVCAR-3 ovarian
[8] = test system: SR leukemia
[9] = test system: ACHN renal
[10] = test system: CAKI-1 renal
[11] = test system: MALME-3M melanoma
[12] = test system: NCI-H460 lung
[13] = test system: OVCAR-5 ovarian
[14] = test system: K-562 leukemia
[15] = test system: NCI-H226 lung
[16] = test system: HOP-92 NSCLC
[17] = test system: MOLT-4 leukemia
[18] = test system: RXF 393 renal
[19] = test system: OVCAR-4 ovarian
[20] = test system: HOP-62 NSCLC
[21] = test system: MCF7 breast
[22] = test system: CCRF-CEM leukemia
[23] = test system: SF-268 CNS
[24] = test system: EKVX NSCLC
[25] = test system: SNB-75 CNS
[26] = test system: UACC-257 melanoma
[27] = test system: HCT-15 colon
[28] = test system: SNB-19 CNS
[29] = test system: SF-295 CNS
[30] = test system: A549 NSCLC
[31] = test system: SF-539 CNS
[32] = test system: TK-10 renal
[33] = test system: HCC-2998 colon
[34] = test system: 786-0 renal
[35] = test system: DU-145 prostate
[36] = test system: NCI/ADR-RES ovarian
[37] = test system: MDA-MB-435
[38] = test system: PC-3 prostate
[39] = test system: SK-MEL-5 melanoma
[40] = test system: T-47D breast
[41] = test system: SN12C renal
[42] = test system: HS 578T breast
[43] = test system: MDA-N
[44] = test system: M14 melanoma
[45] = test system: MDA-MB-231 breast
[46] = test system: UACC-62 melanoma
[47] = test system: NCI-H23 lung
[48] = test system: UO-31 renal
[49] = test system: OVCAR-8 ovarian
[50] = test system: LOX IMVI melanoma
[51] = test system: HCT-116 colon
[52] = test system: IGROV1 ovarian
[53] = test system: KM12 colon
[54] = test system: COLO 205 colon
[55] = test system: NCI-H522 lung
[56] = test system: SK-OV-3 ovarian
[57] = test system: SW-620 colon
[58] = test system: SK-MEL-2 melanoma
[59] = test system: A498 renal

For `CCOC(=O)NN(C(=O)OCC)C(=C(c1ccccc1)N1CCOCC1)N(NC(=O)OCC)C(=O)OCC`, the TGI [1] was greater than 100 µM, the TGI [2] was greater than 100 µM and the TGI [3] was greater than 100 µM. It also gave a TGI [4] greater than 100 µM, a TGI [5] greater than 100 µM and a TGI [6] greater than 100 µM. It also gave a TGI [7] greater than 100 µM, a TGI [8] greater than 100 µM and a TGI [9] greater than 100 µM. For the same compound, the TGI [10] was greater than 100 µM, the TGI [11] was greater than 100 µM and the TGI [12] was greater than 100 µM. It also gave a TGI [13] greater than 100 µM, a TGI [14] greater than 100 µM and a TGI [15] greater than 100 µM. It also gave a TGI [16] greater than 100 µM, a TGI [17] greater than 100 µM and a TGI [18] greater than 100 µM. It also gave a TGI [19] greater than 100 µM, a TGI [20] greater than 100 µM and a TGI [21] greater than 100 µM. The TGI [22] was greater than 100 µM, the TGI [23] was greater than 100 µM and the TGI [24] was greater than 100 µM. For the same compound, the TGI [25] was greater than 100 µM, the TGI [26] was greater than 100 µM and the TGI [27] was greater than 100 µM. The TGI [28] was greater than 100 µM, the TGI [29] was greater than 100 µM and the TGI [30] was greater than 100 µM. It also gave a TGI [31] greater than 100 µM, a TGI [32] greater than 100 µM and a TGI [33] greater than 100 µM. It also gave a TGI [34] greater than 100 µM, a TGI [35] greater than 100 µM and a TGI [36] greater than 100 µM. For the same compound, the TGI [37] was greater than 100 µM, the TGI [38] was greater than 100 µM and the TGI [39] was greater than 100 µM. For the same compound, the TGI [40] was greater than 100 µM, the TGI [41] was greater than 100 µM and the TGI [42] was greater than 100 µM. The TGI [43] was greater than 100 µM, the TGI [44] was greater than 100 µM and the TGI [45] was greater than 100 µM. It also gave a TGI [46] greater than 100 µM, a TGI [47] greater than 100 µM and a TGI [48] greater than 100 µM. For the same compound, the TGI [49] was greater than 100 µM, the TGI [50] was greater than 100 µM and the TGI [51] was greater than 100 µM. The TGI [52] was greater than 100 µM, the TGI [53] was greater than 100 µM and the TGI [54] was greater than 100 µM. The TGI [55] was greater than 100 µM, the TGI [56] was greater than 100 µM and the TGI [57] was greater than 100 µM. The TGI [58] was greater than 100 µM and the TGI [59] was greater than 100 µM.
`O=C1Nc2ccc(Br)cc2C1=Nc1ccc2c(c1)OCO2` gave a TGI [1] of 43.6 µM, a TGI [2] of 25.3 µM and a TGI [3] of 63.2 µM. For the same compound, the TGI [4] was 50.5 µM, the TGI [5] was 39.1 µM and the TGI [6] was greater than 100 µM. The TGI [7] was 61.8 µM, the TGI [8] was 73.5 µM and the TGI [9] was 68.7 µM. The TGI [10] was 64.5 µM, the TGI [11] was 35.6 µM and the TGI [12] was 67.9 µM. It also gave a TGI [13] of 51.9 µM, a TGI [14] of 61.6 µM and a TGI [15] of 60.8 µM. It also gave a TGI [16] greater than 100 µM, a TGI [17] of 50.2 µM and a TGI [18] of 38.9 µM. It also gave a TGI [19] of 17.1 µM, a TGI [20] of 44.5 µM and a TGI [21] of 37 µM. The TGI [22] was 55.3 µM, the TGI [23] was greater than 100 µM and the TGI [24] was 74.8 µM. The TGI [25] was 98.4 µM, the TGI [26] was 34.8 µM and the TGI [27] was 53.4 µM. For the same compound, the TGI [28] was greater than 100 µM, the TGI [29] was 78.7 µM and the TGI [30] was greater than 100 µM. The TGI [31] was 37.3 µM, the TGI [32] was 59.6 µM and the TGI [33] was 30 µM. It also gave a TGI [34] of 48.2 µM, a TGI [35] greater than 100 µM and a TGI [36] of 85.8 µM. It also gave a TGI [37] of 22.4 µM, a TGI [38] of 33.6 µM and a TGI [39] of 30 µM. The TGI [40] was greater than 100 µM, the TGI [41] was 34.4 µM and the TGI [42] was 98.7 µM. For the same compound, the TGI [43] was 30.4 µM, the TGI [44] was 40.6 µM and the TGI [45] was 39.2 µM. For the same compound, the TGI [46] was 29.1 µM, the TGI [47] was greater than 100 µM and the TGI [48] was 44.1 µM. It also gave a TGI [49] greater than 100 µM, a TGI [50] of 64.9 µM and a TGI [51] of 33.6 µM. The TGI [52] was greater than 100 µM, the TGI [53] was 44.5 µM and the TGI [54] was 31.9 µM. For the same compound, the TGI [55] was 43 µM, the TGI [56] was greater than 100 µM and the TGI [57] was 74.1 µM. For the same compound, the TGI [58] was 35.3 µM and the TGI [59] was 97.3 µM.
`CC(=O)NCCC1CN(C(=O)/C=C\I)c2ccccc21` (stereo unspecified) gave a TGI [1] of 8.49 µM, a TGI [2] of 25.9 µM and a TGI [3] of 9.5 µM. It also gave a TGI [4] of 38.2 µM, a TGI [5] of 24 µM and a TGI [6] of 31.6 µM. It also gave a TGI [7] of 28.2 µM, a TGI [8] greater than 65.9 µM and a TGI [9] of 28.5 µM. It also gave a TGI [10] of 3.32 µM, a TGI [11] of 28.5 µM and a TGI [12] of 22.3 µM. It also gave a TGI [13] of 30.2 µM, a TGI [14] greater than 40.3 µM and a TGI [15] of 27.6 µM. The TGI [16] was 46.3 µM, the TGI [17] was 13.7 µM and the TGI [18] was 26.3 µM. It also gave a TGI [19] of 39 µM, a TGI [20] of 23.3 µM and a TGI [21] of 13.4 µM. For the same compound, the TGI [22] was 13.3 µM, the TGI [23] was 31.6 µM and the TGI [24] was 34 µM. For the same compound, the TGI [25] was 33 µM, the TGI [26] was 26.7 µM and the TGI [27] was 22.1 µM. For the same compound, the TGI [28] was 46.9 µM, the TGI [29] was 31.5 µM and the TGI [30] was 31.4 µM. For the same compound, the TGI [31] was 17.8 µM, the TGI [32] was 19.5 µM and the TGI [33] was 28.5 µM. For the same compound, the TGI [34] was 24.7 µM, the TGI [35] was 33.1 µM and the TGI [36] was greater than 61.7 µM. For the same compound, the TGI [37] was 30.8 µM, the TGI [38] was 24 µM and the TGI [39] was 16 µM. For the same compound, the TGI [40] was 37.6 µM, the TGI [41] was 13.1 µM and the TGI [42] was 67.6 µM. The TGI [43] was 26.3 µM, the TGI [44] was 24 µM and the TGI [45] was 8.14 µM. It also gave a TGI [46] of 28.3 µM, a TGI [47] of 35.2 µM and a TGI [48] of 18.8 µM. The TGI [49] was 35.8 µM, the TGI [50] was 11.1 µM and the TGI [51] was 28.8 µM. The TGI [52] was 28.4 µM, the TGI [53] was 18.7 µM and the TGI [54] was 23.9 µM. The TGI [55] was 3.29 µM, the TGI [56] was 34.9 µM and the TGI [57] was 38.6 µM. It also gave a TGI [58] of 29.7 µM and a TGI [59] of 41.7 µM.
Work on `NC(C(=O)O)c1cc(=O)[nH]o1` (stereo unspecified) yielded a TGI [1] greater than 100 µM, a TGI [2] greater than 100 µM and a TGI [3] greater than 100 µM. The TGI [4] was greater than 69.9 µM, the TGI [5] was greater than 100 µM and the TGI [6] was greater than 100 µM. It also gave a TGI [7] greater than 100 µM, a TGI [8] greater than 100 µM and a TGI [9] greater than 100 µM. The TGI [10] was greater than 100 µM, the TGI [11] was greater than 100 µM and the TGI [12] was greater than 100 µM. It also gave a TGI [13] greater than 100 µM, a TGI [14] greater than 100 µM and a TGI [15] greater than 100 µM. For the same compound, the TGI [16] was greater than 100 µM, the TGI [17] was greater than 100 µM and the TGI [18] was greater than 100 µM. For the same compound, the TGI [19] was greater than 100 µM, the TGI [20] was greater than 100 µM and the TGI [21] was greater than 100 µM. It also gave a TGI [22] greater than 100 µM, a TGI [23] greater than 100 µM and a TGI [24] greater than 100 µM. For the same compound, the TGI [25] was greater than 100 µM, the TGI [26] was greater than 100 µM and the TGI [27] was greater than 100 µM. It also gave a TGI [28] greater than 100 µM, a TGI [29] greater than 100 µM and a TGI [30] greater than 100 µM. The TGI [31] was greater than 100 µM, the TGI [32] was greater than 100 µM and the TGI [33] was greater than 100 µM. It also gave a TGI [34] greater than 100 µM, a TGI [35] greater than 100 µM and a TGI [36] greater than 100 µM. The TGI [37] was greater than 100 µM, the TGI [38] was greater than 100 µM and the TGI [39] was greater than 100 µM. For the same compound, the TGI [40] was greater than 100 µM, the TGI [41] was greater than 100 µM and the TGI [42] was greater than 100 µM. For the same compound, the TGI [43] was greater than 100 µM, the TGI [44] was greater than 100 µM and the TGI [45] was greater than 100 µM. For the same compound, the TGI [46] was greater than 100 µM, the TGI [47] was greater than 100 µM and the TGI [48] was greater than 100 µM. It also gave a TGI [49] greater than 100 µM, a TGI [50] greater than 100 µM and a TGI [51] greater than 100 µM. The TGI [52] was greater than 100 µM, the TGI [53] was greater than 100 µM and the TGI [54] was greater than 100 µM. For the same compound, the TGI [55] was greater than 100 µM, the TGI [56] was greater than 100 µM and the TGI [57] was greater than 100 µM. For the same compound, the TGI [58] was greater than 100 µM and the TGI [59] was greater than 100 µM.
